# Test results published in patent US7361263B2, “Water treatment apparatus and method” (Sanyo Electric Co., Ltd., priority 2002, dated 2008).
# Structures can show the parent of a compound that is named as a salt. Where two headings read alike, the source gives them in different places.
# Assays:
# [1] = Cytotoxicity (CC50) test, WST-8; type: cell-based, human; details: human; electrolyzing time 0 hours; Molt-4 cells, cultured three days
# From the text: For the measurement of the number of cells, tetrazolium salt WST-8 (Cell Counting Kit-8 available as a kit) was employed as the chromophone. The basic principle of the cytotoxicity (CC50) test is set forth below. WST-8 is reduced by intracellular dehydrogenation enzyme to produce soluble formazan. Since the number of cells and the amount of generated formazan is linearly proportional, the number of cells can be readily measured by directly measuring the absorbancy of formazan at 450 nm. The specific procedure for measurement is set forth below. 180 μl of a culture medium was introduced into each of the wells in the range of rows A-D and columns 3-10 in a 96-well flat microtiter plate for diluting the agent. 240 μl of the sample taken at 0 hours from initiation of electrolysis was added to the well of row A, column 2 in the microtiter plate. 240 μl of the sample taken 2 hours from initiation of electrolysis was added to the well of row B, column 2. 240 μl of the sample taken 4 hours from initiation of electrolysis was added to the well of row C, column 2. 240 μl of the sample taken 6 hours from initiation of electrolysis was added to the well of row D, column 2. To produce respective columns of sample dilutions, samples of 60 μl each was taken from the above-described samples of 240 μl. These samples of 60 μl were sequentially added to the right side well to be sufficiently pipeted. This was conducted up to column 10. Two of U-bottom 96-well microtiter plates for cultivation were prepared, and 200 μl of PBS was applied to all the side-most wells. 100 μl of culture medium was introduced into each of the wells of rows B-G, columns 2-9. 150 μl of culture medium was introduced into the wells of columns 10 and 11. Then, 50 μl of cell suspension solution prepared to 5×10^6 cell/ml was introduced into each of the wells of rows B-G, columns 2-9 and column 11. The wells of column 10 were absent of cells. […] Then, the O.D. was measured at 450 nm and 620 nm using a microplate reader.
# [2] = Mutagenicity test (umu-test); type: cell-based
# Description: The test was conducted according to the instruction manual included in the kit of “Umu-test” from Japan Immunoresearch Laboratories Co., Ltd.
# [3] = system: Staphylococcus aureus (staphylococcus bacteria) FDA 209P; test: Test of antibacterial activity of epirubicin hydrochloride (MIC, small amount broth dilution); type: cell-based; details: for MIC: Staphylococcus aureus, FDA209P, read-out: minimum inhibitory concentration (MIC)
# Description: (§1) The pharmaceutical stock solution disclosed in the standard method was replaced with the samples of the present example for testing. As the culture medium for measuring sensitivity, Cation Supplemented Mueller-Hinton Broth: CSMHB (obtained from EIKEN CHEMICAL CO., LTD.) was employed. This CSMHB was poured 90 μl each into a U-shaped bottom 96-well microplate. Samples taken 0, 2, 4 and 6 hours from initiation of electrolysis described in the above 2 were prepared. A diluted solution of respective samples was prepared in accordance with the standard method. […] The bacilli used in the present example were identical to the two types of bacillus employed in Example 1, i.e. Staphylococcus aureus (staphylococcus bacteria) FDA […] and Escherichia coli (coliform bacillus) NIHJ JC-2. […] This solution was inoculated approximately 0.005 ml in each well of the plate set forth above within 15 minutes from preparation of the solution including bacillus. A medium not containing the agent was poured into 1-2-wells as the control of the development of bacillus. Cultivation was conducted for 18-24 hours at 35° C.
# [4] = system: Escherichia coli (coliform bacillus) NIHJ JC-2; test: as above; type: cell-based; details: read-out: minimum inhibitory concentration (MIC)
# Description: as §1
smiles,measurement,setting,value
COc1cccc2c1C(=O)c1c(O)c3c(c(O)c1C2=O)C[C@@](O)(C(=O)CO)C[C@@H]3O[C@H]1C[C@H](N)[C@@H](O)[C@H](C)O1 [epirubicin hydrochloride],CC50 at 3 days,[1],0.066 µg/mL
same,concentration of the tube showing the mutagenicity induction level (fifth tube),[2]; 0 hours from initiation of electrolysis,24.7 μ/ml
same,umu-test absorbancy of the first tube (O.D.620 nm),"[2]; at all of 0, 2, 4 and 6 hours from initiation of electrolysis",exceeded 0.2
same,umu-test result (positivity / negativity),"[2]; at all of 0, 2, 4 and 6 hours from initiation of electrolysis, cut off value approximately 0.18",positivity
same,mutagenicity after the electrolytic process relative to before,"[2]; lines diluted by three times, 1/3^4",1/81
same,MIC,[3]; electrolyzing time 0 hours,1.56 µg/mL
same,MIC,[3]; electrolyzing time 2 hours,25 µg/mL
same,MIC,[3]; electrolyzing time 4 hours,> 200 µg/mL
same,MIC,[3]; electrolyzing time 6 hours,> 200 µg/mL
same,relative MIC value (MIC at 0 hour set as 1),[3]; electrolyzing time 0 hours,1
same,relative MIC value (MIC at 0 hour set as 1),[3]; electrolyzing time 2 hours,1/16
same,MIC,"[4]; NIHJJC2, electrolyzing time 0 hours",> 200 µg/mL
same,MIC,"[4]; NIHJJC2, electrolyzing time 2 hours",> 200 µg/mL
same,MIC,"[4]; NIHJJC2, electrolyzing time 4 hours",> 200 µg/mL
same,MIC,"[4]; NIHJJC2, electrolyzing time 6 hours",> 200 µg/mL
